# Columns and labels:
# [1] = system: human red blood cells; assay: Red Blood Cell (RBC) lysis; assay type: cell-based; conditions: human RBCs, 30 min, room temperature, up to 16× MIC
# Method: The method described by Stasiuk et al. was followed in general. Defibrinated human blood (Valley BioMedical) was washed three times with buffer (10 mM Tris-HCl, pH 7.4, 0.9% NaCl) and resuspended to a final concentration of 3% RBCs immediately prior to performing the assay. One hundred eighty microliters of RBCs were added to 1020 µl buffer containing various concentrations of the investigational compound. […] DMSO alone (5% final concentration) served as the negative control to subtract the background, while a reaction with water substituted for buffer served as a positive control that completely lyses the RBCs. […] Incubation of compounds and RBCs proceeded for 30 minutes at room temperature, followed by centrifugation at 1,300× g for 5 minutes to pellet the RBCs. Finally, 300 µl of the supernatant was removed to a 96-well plate and the released hemoglobin was measured at A540 using a SpectraMax (Molecular Dynamics) plate reader. Prism (GraphPad) software was used for data analysis. Results were expressed as percent lysis compared to treatment of RBCs with deionized water, which completely ruptures the membrane. Analyses were performed by Micromyx, LLC (Kalamazoo, Michigan).
# [2] = Cytotoxicity by MTT assay; assay type: cell-based, human; conditions: human, Jurkat cells; concentration resulting in 50% cell survival, MTT, 4 h; read-out: Cytotoxicity (C50%) Jurkat
# [3] = system: Enterococcus faecalis MMX101-ATCC 29212; assay: Broth microdilution susceptibility testing (CLSI); assay type: cell-based; conditions: Enterococcus faecalis, ATCC29212, read-out: MIC Enterococcus faecalis 101-29212
# Method: (§1) The antibacterial activity of defensin mimetics against Staphylococcus aureus ATCC 29213 and Escherichia coli 25922 was carried out in a 96-well turbidimetric assay essentially as described previously with the following modifications: bacteria were exposed for 30 min to compounds in 10 mM phosphate buffer containing 5% DMSO prior to addition of 2× Muller-Hinton medium. Bacterial growth was monitored for 12 hours and data were analyzed as described. Determination of MICs was performed by Micromyx, LLC (Kalamazoo, Michigan) according to CLSI standards.
# [4] = system: Escherichia coli MMX102-ATCC 25922; assay: Broth microdilution susceptibility testing (CLSI); assay type: cell-based; conditions: for MIC: Escherichia coli, ATCC25922, read-out: MIC Escherichia coli 102-25922
# Method: as §1
# [5] = system: Staphylococcus aureus MMX100-ATCC 29213; assay: Broth microdilution susceptibility testing (CLSI); assay type: cell-based; conditions: Staphylococcus aureus, ATCC29213, read-out: MIC Staphylococcus aureus 100-29213
# Method: as §1
# [6] = system: Streptococcus pneumoniae MMX1195-ATCC 49619; assay: Broth microdilution susceptibility testing (CLSI); assay type: cell-based; conditions: Streptococcus pneumoniae, ATCC49619, read-out: MIC Streptococcus pneumoniae 1195-49619
# Method: as §1
# [7] = system: Pseudomonas aeruginosa MMX103-ATCC 27853; assay: Broth microdilution susceptibility testing (CLSI); assay type: cell-based; conditions: Pseudomonas aeruginosa, ATCC27853, read-out: MIC Pseudomonas aeruginosa 103-27853
# Method: as §1
# [8] = system: Enterococcus faecalis (VRE) MMX848; assay: Broth microdilution susceptibility testing (CLSI); assay type: cell-based; conditions: Enterococcus faecalis, VRE, read-out: MIC Enterococcus faecalis (VRE) 848-NA
# Method: as §1
# [9] = system: Staphylococcus aureus (MRSA) MMX757; assay: Broth microdilution susceptibility testing (CLSI); assay type: cell-based; conditions: Staphylococcus aureus, MRSA, read-out: MIC Staphylococcus aureus (MRSA) 757-NA
# Method: as §1
# [10] = NMR interaction with Lipid II; assay type: binding; conditions: 1D proton chemical shift changes on addition to 3-Lipid II
# Method: The NMR samples consisted of 0.15 mM Lipid II, 0.15 mM BAS00127538 compound, or 0.15 mM Lipid II+0.15 mM BAS00127538 compound. All samples were dissolved in 90% double distilled H20+10% DMSO, incubated for 30 minutes, freeze-dried, and then dissolved in 300 µL of d6-DMSO. NMR experiments were carried out at 25°C on an 800 MHz Bruker Avance NMR spectrometer (800.27 MHz for protons) equipped with a pulse-field gradient unit, four frequency channels, and a triple resonance TXI cryoprobe (Bruker Biospin, Billerica, MA). 1D proton experiments were collected to probe for chemical shift changes and 2D TOCSY (30, 60, and 90 msec spinlock times), 2D NOESY (150 and 300 msec mixing times), and natural abundance ^13C-HSQC experiments were collected to determine proton and carbon chemical shift assignments.
# [11] = system: Staphylococcus aureus ATCC 29213; assay: Antibacterial killing, 96-well turbidimetric (modified vCC) assay; assay type: cell-based; conditions: concentration resulting in 100% killing after 30 min exposure, modified vCC assay
# Method in brief: (§2)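 Turbidimetric killing: 30 min compound pre-exposure, 10 mM phosphate buffer/5% DMSO; 2× MH broth then added; growth read 12 h. S. pneumoniae: MIC by CLSI broth microdilution.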
# [12] = system: Escherichia coli ATCC 25922; assay: as above; assay type: cell-based; conditions: for active against E.coli (IC100%): Table S3, concentration at which 100% killing occurred, no bacterial regrowth, No = not active; for Bacterial Killing E. coli: concentration resulting in 100% killing after 30 min exposure, modified vCC assay
# Method in brief: as §2
# [13] = Cytotoxicity by MTT assay; assay type: cell-based, human; conditions: human, Caco-2 cells; concentration resulting in 50% cell survival, MTT, 24 h; read-out: Cytotoxicity (C50%) Caco-2
# [14] = system: Streptococcus pneumonia (PRSP) MMX884; assay: Broth microdilution susceptibility testing (CLSI); assay type: cell-based, Streptococcus pneumoniae; conditions: Streptococcus pneumoniae, PRSP, read-out: MIC Streptococcus pneumonia (PRSP) 884-NA
# Method: as §1
Structure (SMILES),lysis of red blood cells [1],IC50 at 4 h [2] [µM],MIC [3] [µg/mL],MIC Escherichia coli 102-25922 [4] [µg/mL],MIC [4] [µg/mL],MIC [5] [µg/mL],MIC [6] [µg/mL],MIC [7] [µg/mL],MIC [8] [µg/mL],MIC [9] [µg/mL],interaction with Lipid II by NMR [10],Bacterial Killing S. aureus [11] [µM],active against E.coli (IC100%) [12],Bacterial Killing E. coli [12] [µM],IC50 at 24 h [13] [µM],MIC [14] [µg/mL]
"CN1/C(=C/C=C/c2cc(-c3ccccc3)cc(-c3ccccc3)[o+]2)C(C)(C)c2ccccc21 [BAS00127538, 2,4-diphenyl-6-[(1E)-3-[(2E)-1,3,3-trimethyl-2,3-dihydro-1H-indol-2-ylidene]prop-1-en-1-yl]-1$l^4-pyran-1-ylium]",does not induce lysis of red blood cells,14.5,1,4,4,0.5,8,> 8,1,0.5,found to interact,0.244,"7,8 µM",7.8,2.7,8
CN(C)c1ccc(/C=C/c2cc(-c3ccccc3)[o+]c(-c3ccccc3)c2)cc1 [Compound 1499-1221],significant membrane rupture,18.6,2,–,> 16,0.25,> 8,> 16,2,0.5,could not be confirmed,0.031,125 µM,125,8.9,> 8

# Reference: article PMC3820767, “Turning Defense into Offense: Defensin Mimetics as Novel Antibiotics Targeting Lipid II” (PLoS Pathogens, 2013)
